Measurements published in ChEMBL document CHEMBL3792323, “Piperidine derivatives as nonprostanoid IP receptor agonists” (Bioorg Med Chem Lett, 2016).

Key:
[1] = target: Prostaglandin E2 receptor EP4 subtype (Homo sapiens, UniProt P35408); experiment: Binding affinity to human EP4 receptor by competitive binding assay
[2] = target: T1, Prostaglandin E2 receptor EP1 subtype (Homo sapiens, UniProt P34995); experiment: Binding affinity to human EP1 receptor by competitive binding assay
T1 sequence (P34995 whole entry): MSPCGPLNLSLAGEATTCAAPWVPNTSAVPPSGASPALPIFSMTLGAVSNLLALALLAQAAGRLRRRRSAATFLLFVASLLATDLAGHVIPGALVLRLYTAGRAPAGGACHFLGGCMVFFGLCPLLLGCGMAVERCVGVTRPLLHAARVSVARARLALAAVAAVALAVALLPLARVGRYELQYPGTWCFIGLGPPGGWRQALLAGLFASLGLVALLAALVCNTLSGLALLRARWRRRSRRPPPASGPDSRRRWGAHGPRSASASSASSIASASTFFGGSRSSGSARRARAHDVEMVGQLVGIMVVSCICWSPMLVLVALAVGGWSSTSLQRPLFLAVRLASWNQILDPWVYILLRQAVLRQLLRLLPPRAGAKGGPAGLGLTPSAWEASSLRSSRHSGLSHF

[3] = target: T2, Thromboxane A2 receptor (Homo sapiens, UniProt P21731); experiment: Binding affinity to human TP receptor by competitive binding assay
T2 sequence (P21731 whole entry): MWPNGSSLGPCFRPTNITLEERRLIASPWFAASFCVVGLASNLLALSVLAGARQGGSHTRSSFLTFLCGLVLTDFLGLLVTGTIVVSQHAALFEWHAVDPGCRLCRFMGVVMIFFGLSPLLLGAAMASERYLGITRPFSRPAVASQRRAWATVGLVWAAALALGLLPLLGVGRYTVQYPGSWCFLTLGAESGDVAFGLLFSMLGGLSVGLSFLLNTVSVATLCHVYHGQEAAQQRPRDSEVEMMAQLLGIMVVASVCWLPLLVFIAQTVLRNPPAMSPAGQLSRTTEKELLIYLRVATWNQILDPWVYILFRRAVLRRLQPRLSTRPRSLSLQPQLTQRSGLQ

[4] = Cmax in fasted dog at 2.5 mg/kg, po; type: ADME, organism-based, Canis lupus familiaris; set-up: dose 2.5 mg/kg, route oral; conditions: in vivo
[5] = target: Prostaglandin F2-alpha receptor (Homo sapiens, UniProt P43088); experiment: Binding affinity to human FP receptor by competitive binding assay
Chain of Prostaglandin F2-alpha receptor (P43088 whole entry): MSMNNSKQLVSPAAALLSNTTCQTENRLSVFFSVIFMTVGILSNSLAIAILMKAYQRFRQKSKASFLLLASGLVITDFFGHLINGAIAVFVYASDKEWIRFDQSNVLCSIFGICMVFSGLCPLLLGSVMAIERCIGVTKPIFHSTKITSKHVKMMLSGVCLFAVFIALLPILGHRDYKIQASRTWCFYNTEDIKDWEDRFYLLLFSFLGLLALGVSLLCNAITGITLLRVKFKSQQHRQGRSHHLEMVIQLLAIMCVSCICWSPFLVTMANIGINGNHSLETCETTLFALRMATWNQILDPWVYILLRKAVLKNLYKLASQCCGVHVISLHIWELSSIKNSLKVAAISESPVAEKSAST

[6] = target: Prostacyclin receptor (Homo sapiens, UniProt P43119); experiment: Binding affinity to human IP receptor by competitive binding assay
Chain of Prostacyclin receptor (P43119 whole entry): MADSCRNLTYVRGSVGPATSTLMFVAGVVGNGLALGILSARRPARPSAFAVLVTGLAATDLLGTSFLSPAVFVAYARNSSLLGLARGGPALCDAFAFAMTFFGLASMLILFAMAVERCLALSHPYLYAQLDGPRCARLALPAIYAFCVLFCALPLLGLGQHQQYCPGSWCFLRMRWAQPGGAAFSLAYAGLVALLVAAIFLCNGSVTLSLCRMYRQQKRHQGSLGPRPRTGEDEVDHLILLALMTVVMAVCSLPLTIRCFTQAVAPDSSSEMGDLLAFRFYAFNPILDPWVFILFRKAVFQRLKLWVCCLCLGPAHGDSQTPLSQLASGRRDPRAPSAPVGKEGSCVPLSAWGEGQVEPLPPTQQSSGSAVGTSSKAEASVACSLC

[7] = Oral bioavailability in fasted dog at 2.5 mg/kg; type: ADME, organism-based, Canis lupus familiaris; conditions: in vivo
[8] = target: Prostaglandin E2 receptor EP2 subtype (Homo sapiens, UniProt P43116); experiment: Binding affinity to human EP2 receptor by competitive binding assay
Chain of Prostaglandin E2 receptor EP2 subtype (P43116 whole entry): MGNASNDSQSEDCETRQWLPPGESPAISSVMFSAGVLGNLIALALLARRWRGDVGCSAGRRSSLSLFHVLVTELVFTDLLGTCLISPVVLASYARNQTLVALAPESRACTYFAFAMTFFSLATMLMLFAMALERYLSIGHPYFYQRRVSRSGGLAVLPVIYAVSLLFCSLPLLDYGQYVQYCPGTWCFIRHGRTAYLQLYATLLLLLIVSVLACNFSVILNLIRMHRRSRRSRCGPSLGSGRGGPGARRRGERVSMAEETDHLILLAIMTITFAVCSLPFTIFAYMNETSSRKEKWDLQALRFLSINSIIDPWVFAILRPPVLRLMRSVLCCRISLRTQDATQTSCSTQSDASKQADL

[9] = target: T3, Prostaglandin E2 receptor EP3 subtype (Homo sapiens, UniProt P43115); experiment: Binding affinity to human EP3 receptor by competitive binding assay
T3 sequence (P43115 whole entry): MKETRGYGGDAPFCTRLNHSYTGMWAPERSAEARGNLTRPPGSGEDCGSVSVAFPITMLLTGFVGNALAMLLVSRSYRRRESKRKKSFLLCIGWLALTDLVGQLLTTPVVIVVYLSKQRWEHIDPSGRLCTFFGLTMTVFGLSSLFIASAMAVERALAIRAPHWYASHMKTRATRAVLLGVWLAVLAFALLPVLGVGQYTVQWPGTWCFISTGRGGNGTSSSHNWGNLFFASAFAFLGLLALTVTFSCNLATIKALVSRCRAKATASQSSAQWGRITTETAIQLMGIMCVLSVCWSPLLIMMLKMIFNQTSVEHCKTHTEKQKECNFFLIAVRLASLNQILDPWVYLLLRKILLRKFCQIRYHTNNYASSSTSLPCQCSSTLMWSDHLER

Chain of Prostaglandin E2 receptor EP4 subtype (P35408 whole entry): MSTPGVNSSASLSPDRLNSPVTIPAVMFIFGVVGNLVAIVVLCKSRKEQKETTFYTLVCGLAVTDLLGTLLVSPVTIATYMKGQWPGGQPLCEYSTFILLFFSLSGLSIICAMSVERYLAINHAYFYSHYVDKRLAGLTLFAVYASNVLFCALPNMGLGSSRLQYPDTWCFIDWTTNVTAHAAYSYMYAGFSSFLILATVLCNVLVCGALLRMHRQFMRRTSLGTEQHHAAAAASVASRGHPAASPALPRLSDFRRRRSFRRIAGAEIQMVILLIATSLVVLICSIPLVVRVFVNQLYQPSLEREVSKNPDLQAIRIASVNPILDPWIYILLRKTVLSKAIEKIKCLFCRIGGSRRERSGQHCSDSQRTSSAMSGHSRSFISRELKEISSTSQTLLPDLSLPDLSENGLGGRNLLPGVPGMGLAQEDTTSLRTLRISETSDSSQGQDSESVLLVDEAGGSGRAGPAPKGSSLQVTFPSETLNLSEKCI

Row | Ki [1] [µM] | Ki [2] [µM] | Ki [3] [µM] | Cmax [4] [ng/mL] | Ki [5] [µM] | Ki [6] [µM] | bioavailability [7] [%] | Ki [8] [µM] | Ki [9] [µM] | Structure (SMILES)
1 | > 50 | > 50 | > 50 | 1610 | > 50 | 0.99 | 77 | > 50 | > 50 | Cc1ccc(N(CCN2CCC(OCC(=O)O)CC2)C(=O)c2ccccc2)cc1
2 |  |  |  | 138 |  |  | 13 |  |  | O=C(O)COc1cccc2c1OCCN2CCN(C(=O)c1ccccn1)c1ccc(Cl)cc1
